Key:
[1] = tested on: cortico-striatal synapse LTD (striatal projection neurons); experiment: Long-term depression at the cortico-striatal synapse, whole-cell electrophysiology in acute brain slices; type: cell-based, mouse
Procedure: To directly test these predictions, whole-cell electrophysiology of striatal projection neurons was performed in acute brain slices to induce long-term depression in the presence of eIF2-alpha pathway-modulating drugs. Acute horizontal brain slices from the progeny of heterozygous ΔE Torsin1a knockin×homozygous Drd1a-tdTomato mice (age P15-21) were prepared largely as described in (Trusel et al., 2015, Cell Rep. 13, 1353-65). LTD was induced as in Trusel et al., 2015, with modifications.
Heterozygous delGAG Torsin1a knockin mice (courtesy of Dr. W. Dauer, University of Michigan) were crossed with homozygous Drd1a-tdTomato mice (Jackson Labs) and the progeny was used at postnatal day 15-21 for experiments. […]
Single slices were transferred to a recording chamber and superfused continuously with ACSF containing 50 μM picrotoxin at 32° C. and 3-4 mL/min. […] Evoked excitatory postsynaptic potentials (EPSPs) were recorded in the dorsolateral striatum, while stimulating every 30 seconds with a concentric bipolar electrode (FHC) in cortical layer V (see Trusel et al., Cell Reports, 2015). […] Baseline EPSPs were recorded for at least 10 min or until a stable baseline was reached. Data were acquired by pClamp v10 and analyzed using Clampfit v10.4, Origin v8.0, and GraphPad Prism v6.

[2] = tested on: WT Torsin1a localization in Flp-In T-REx 293 cells expressing EGFP-WT Torsin1a; experiment: Torsin1a localization assay in WT Torsin1a-expressing assay cell line; type: cell-based, human; conditions: WT Torsin1a-expressing cell line, dose response
From the text: To develop an assay capable of detecting conditions that correct a dystonia cellular phenotype, two human cell lines were generated that stably expressed EGFP-tagged human wild-type Torsin 1A, or delta-E Torsin1a, from a single cDNA copy integrated at a defined genomic site (FIG. 1, panel 1).
To limit variation in expression levels associated with random integration or transient expression, single copies of either WT or delta-E human TOR1A cDNAs with N-terminal EGFP fusions were inserted at the FRT site in Flp-In™ T-Rex™ 293 cells (Thermo Fisher Scientific #R780-07) via flippase recombinase-mediated cassette exchange according to the manufacturer's recommended protocols. This system includes an inducible expression feature (TetON) that avoids selective pressure for potential toxic effects of chronic expression of mutant proteins (FIG. 1, panel 1). […]
This approach provides control over expression levels, avoiding the wide variation typically seen with random genomic integration or transient expression approaches. […] The mutant phenotype was measured as the percentage of cells with one or more EGFP puncta using automated high-content imaging analysis (see infra).
Development and validation of the high-content image analysis and assay performance under high-throughput screening conditions is presented in FIG. 9. […] Automated exposure times for each plate were determined by setting a target saturation of 25% in channel 1 in wells containing tetracycline-induced delta-E cells. Detected cells were gated according to nuclear area, length-to-width ratio, and perimeter-to-area ratio. […] EGFP fluorescence (Ch2: excitation 488 nm; emission 509 nm) was used for puncta detection. Automated exposure times for each plate were determined by setting a target saturation of 35% in channel 2 in wells containing induced delta-E cells. […]

In the case of O=C(COc1ccc(Cl)cc1)NC1CCC(NC(=O)COc2ccc(Cl)cc2)CC1 (stereo not drawn) [ISRIB], the “LTD in WT brain slices” value ([1]; pre-incubation 5 nM, WT mice) is reported as “robustly inhibited LTD” and the “effect on WT Torsin1a localization (cells with punctate Torsin1a, in words)” value [2] is reported as “dose-dependent increase”.

O=C(/C=C/c1ccccc1)NC(NC(=S)Nc1ccc(Cl)cc1)C(Cl)(Cl)Cl (stereo not drawn) [Sal-003] was tested, and the “long-term depression in brain slices of mice heterozygous for DYT1 knockin mutation (delGAG)” value ([1]; 20 μM, vs vehicle-treated slices) was “restored long-term depression”.

Source: patent publication US11285142B2, “Compositions and methods for identifying and treating dystonia disorders” (DUKE UNIVERSITY, priority 2015, dated 2022)
